Reference: the NIST ThermoML archive (doi:10.1016/j.fluid.2015.09.010)
Numbers after ± are expanded uncertainties.

Assay: xn = mol fraction of the nth substance listed
Conditions: Gas, single sinker densimeter

F/C=C/C(F)(F)F [trans-1,3,3,3-tetrafluoropropene] + CCC
Conditions | mass density [kg/m3]
258.15 K, 100.61 kPa, x1 = 0.3426 | 3.2856 ± 0.014
258.15 K, 196.38 kPa, x1 = 0.168 | 5.3883 ± 0.012
258.15 K, 283.13 kPa, x1 = 0.168 | 7.9775 ± 0.013
258.16 K, 100.07 kPa, x1 = 0.168 | 2.6751 ± 0.012
258.16 K, 161.36 kPa, x1 = 0.3426 | 5.3604 ± 0.015
258.18 K, 242.52 kPa, x1 = 0.3426 | 8.2589 ± 0.016
263.19 K, 101.37 kPa, x1 = 0.3426 | 3.2412 ± 0.014
263.19 K, 283.01 kPa, x1 = 0.3426 | 9.5248 ± 0.016
263.2 K, 100.13 kPa, x1 = 0.168 | 2.6195 ± 0.011
263.2 K, 200.66 kPa, x1 = 0.3426 | 6.5891 ± 0.015
263.2 K, 209.39 kPa, x1 = 0.168 | 5.6353 ± 0.012
263.2 K, 326.36 kPa, x1 = 0.168 | 9.0877 ± 0.014
263.21 K, 228.28 kPa, x1 = 0.5076 | 8.8723 ± 0.017
263.22 K, 100.69 kPa, x1 = 0.5076 | 3.7656 ± 0.016
263.22 K, 168.02 kPa, x1 = 0.5076 | 6.4065 ± 0.017
268.16 K, 332.61 kPa, x1 = 0.3431 | 11.1032 ± 0.016
268.16 K, 332.62 kPa, x1 = 0.3431 | 11.1044 ± 0.016
268.17 K, 101.25 kPa, x1 = 0.168 | 2.5987 ± 0.011
268.17 K, 101.55 kPa, x1 = 0.679 | 4.2921 ± 0.018
268.17 K, 164.37 kPa, x1 = 0.679 | 7.0737 ± 0.019
268.17 K, 201.77 kPa, x1 = 0.3431 | 6.4883 ± 0.015
268.17 K, 227.73 kPa, x1 = 0.679 | 9.9973 ± 0.019
268.18 K, 202.12 kPa, x1 = 0.5076 | 7.6182 ± 0.017
268.18 K, 248.05 kPa, x1 = 0.168 | 6.5968 ± 0.012
268.18 K, 396.76 kPa, x1 = 0.168 | 11.0064 ± 0.014
268.19 K, 101.5 kPa, x1 = 0.3431 | 3.1825 ± 0.014
268.19 K, 104.3 kPa, x1 = 0.5076 | 3.83 ± 0.016
268.2 K, 297.38 kPa, x1 = 0.5076 | 11.5325 ± 0.018
273.16 K, 335.7 kPa, x1 = 0.168 | 8.9351 ± 0.014
273.16 K, 451.06 kPa, x1 = 0.168 | 12.3973 ± 0.015
273.17 K, 100.67 kPa, x1 = 0.3426 | 3.0918 ± 0.013
273.17 K, 101.01 kPa, x1 = 0.168 | 2.541 ± 0.011
273.17 K, 239.94 kPa, x1 = 0.3426 | 7.62 ± 0.014
273.18 K, 102.27 kPa, x1 = 0.5076 | 3.6758 ± 0.015
273.18 K, 200.45 kPa, x1 = 0.5076 | 7.3826 ± 0.017
273.18 K, 209.57 kPa, x1 = 0.168 | 5.4023 ± 0.012
273.18 K, 354.79 kPa, x1 = 0.5076 | 13.6621 ± 0.018
273.18 K, 373.24 kPa, x1 = 0.3426 | 12.2939 ± 0.016
273.18 K, 413.03 kPa, x1 = 0.3426 | 13.7671 ± 0.018
273.2 K, 100.65 kPa, x1 = 0.679 | 4.1755 ± 0.018
273.2 K, 206.18 kPa, x1 = 0.679 | 8.804 ± 0.019
273.21 K, 292.51 kPa, x1 = 0.679 | 12.8266 ± 0.02
278.16 K, 417.17 kPa, x1 = 0.3431 | 13.5784 ± 0.017
278.17 K, 309.55 kPa, x1 = 0.3431 | 9.7917 ± 0.015
278.18 K, 526.01 kPa, x1 = 0.168 | 14.3898 ± 0.016
278.19 K, 99.65 kPa, x1 = 0.5076 | 3.5099 ± 0.015
278.19 K, 100.62 kPa, x1 = 0.3431 | 3.0318 ± 0.013
278.19 K, 101.41 kPa, x1 = 0.168 | 2.5025 ± 0.011
278.19 K, 191.78 kPa, x1 = 0.5076 | 6.9037 ± 0.016
278.19 K, 198.9 kPa, x1 = 0.3431 | 6.1248 ± 0.014
278.19 K, 207 kPa, x1 = 0.168 | 5.2225 ± 0.011
278.19 K, 297.09 kPa, x1 = 0.5076 | 10.9954 ± 0.017
278.19 K, 309.62 kPa, x1 = 0.168 | 7.9983 ± 0.013
278.19 K, 399.16 kPa, x1 = 0.5076 | 15.2118 ± 0.019
278.19 K, 401.11 kPa, x1 = 0.168 | 10.6025 ± 0.015
278.2 K, 223.87 kPa, x1 = 0.679 | 9.3941 ± 0.019
278.21 K, 100.47 kPa, x1 = 0.679 | 4.0836 ± 0.018
278.21 K, 100.48 kPa, x1 = 0.8949 | 4.7788 ± 0.02
278.21 K, 170.26 kPa, x1 = 0.8949 | 8.2642 ± 0.022
278.21 K, 223.89 kPa, x1 = 0.679 | 9.3939 ± 0.019
278.21 K, 278.18 kPa, x1 = 0.8949 | 13.9927 ± 0.022
278.22 K, 349.38 kPa, x1 = 0.679 | 15.2188 ± 0.021
283.16 K, 205.37 kPa, x1 = 0.3426 | 6.1995 ± 0.014
283.16 K, 338.25 kPa, x1 = 0.3426 | 10.53 ± 0.015
283.17 K, 101.18 kPa, x1 = 0.3426 | 2.9879 ± 0.013
283.17 K, 449.59 kPa, x1 = 0.3426 | 14.3925 ± 0.017
283.18 K, 580.09 kPa, x1 = 0.3426 | 19.2575 ± 0.02
283.19 K, 100.44 kPa, x1 = 0.168 | 2.4312 ± 0.011
283.19 K, 198.03 kPa, x1 = 0.168 | 4.884 ± 0.011
283.19 K, 220.83 kPa, x1 = 0.5076 | 7.8406 ± 0.016
283.19 K, 312.57 kPa, x1 = 0.168 | 7.9025 ± 0.013
283.19 K, 369.65 kPa, x1 = 0.5076 | 13.6268 ± 0.018
283.19 K, 411.95 kPa, x1 = 0.168 | 10.6601 ± 0.015
283.19 K, 498.32 kPa, x1 = 0.5076 | 19.0511 ± 0.02
283.19 K, 515.38 kPa, x1 = 0.168 | 13.6875 ± 0.018
283.19 K, 612.31 kPa, x1 = 0.168 | 16.7013 ± 0.018
283.2 K, 100.73 kPa, x1 = 0.679 | 4.0148 ± 0.017
283.2 K, 101.73 kPa, x1 = 0.5076 | 3.5184 ± 0.015
283.2 K, 202.42 kPa, x1 = 0.679 | 8.2655 ± 0.018
283.2 K, 307.97 kPa, x1 = 0.679 | 12.9389 ± 0.02
283.21 K, 409.61 kPa, x1 = 0.679 | 17.7339 ± 0.021
283.23 K, 209.78 kPa, x1 = 0.8949 | 10.0762 ± 0.021
283.23 K, 328.84 kPa, x1 = 0.8949 | 16.4078 ± 0.023
283.24 K, 102.25 kPa, x1 = 0.8949 | 4.7652 ± 0.02
288.24 K, 101.08 kPa, x1 = 0.3426 | 2.9277 ± 0.013
288.24 K, 229.6 kPa, x1 = 0.3426 | 6.8193 ± 0.013
288.25 K, 344.87 kPa, x1 = 0.3426 | 10.4999 ± 0.015
288.25 K, 452.7 kPa, x1 = 0.3426 | 14.1363 ± 0.017
288.25 K, 583.57 kPa, x1 = 0.3426 | 18.8469 ± 0.02
288.25 K, 689.73 kPa, x1 = 0.3426 | 22.9563 ± 0.022
288.26 K, 595.72 kPa, x1 = 0.168 | 15.7412 ± 0.017
288.26 K, 711.04 kPa, x1 = 0.168 | 19.385 ± 0.02
288.27 K, 213.38 kPa, x1 = 0.168 | 5.1751 ± 0.011
288.27 K, 334.82 kPa, x1 = 0.168 | 8.3244 ± 0.013
288.27 K, 445.46 kPa, x1 = 0.168 | 11.3478 ± 0.015
288.28 K, 101.56 kPa, x1 = 0.168 | 2.4124 ± 0.01
288.29 K, 101.07 kPa, x1 = 0.5076 | 3.4268 ± 0.015
288.29 K, 220.99 kPa, x1 = 0.5076 | 7.6809 ± 0.015
288.29 K, 444.05 kPa, x1 = 0.5076 | 16.2865 ± 0.019
288.29 K, 578.73 kPa, x1 = 0.5076 | 22.0366 ± 0.022
288.3 K, 101.4 kPa, x1 = 0.679 | 3.9663 ± 0.017
288.3 K, 227.2 kPa, x1 = 0.679 | 9.1436 ± 0.018
288.3 K, 333.95 kPa, x1 = 0.5076 | 11.9154 ± 0.017
288.31 K, 348.56 kPa, x1 = 0.679 | 14.4714 ± 0.02
288.31 K, 484.09 kPa, x1 = 0.679 | 20.8941 ± 0.022
288.32 K, 385.31 kPa, x1 = 0.8949 | 19.104 ± 0.023
288.34 K, 101.12 kPa, x1 = 0.8949 | 4.6234 ± 0.02
288.34 K, 236.83 kPa, x1 = 0.8949 | 11.2187 ± 0.021
293.25 K, 588.13 kPa, x1 = 0.3426 | 18.534 ± 0.019
293.25 K, 709.61 kPa, x1 = 0.3426 | 23.0845 ± 0.022
293.26 K, 208.73 kPa, x1 = 0.3426 | 6.0545 ± 0.013
293.26 K, 452.62 kPa, x1 = 0.3426 | 13.8135 ± 0.016
293.27 K, 101.3 kPa, x1 = 0.3426 | 2.8816 ± 0.012
293.27 K, 329.2 kPa, x1 = 0.3426 | 9.782 ± 0.014
293.28 K, 208.37 kPa, x1 = 0.5076 | 7.0836 ± 0.015
293.28 K, 290.55 kPa, x1 = 0.168 | 7.0037 ± 0.012
293.28 K, 407.44 kPa, x1 = 0.168 | 10.0558 ± 0.014
293.29 K, 98.9 kPa, x1 = 0.5076 | 3.2914 ± 0.014
293.29 K, 100.13 kPa, x1 = 0.168 | 2.3324 ± 0.01
293.29 K, 198.29 kPa, x1 = 0.168 | 4.6983 ± 0.011
293.29 K, 317.13 kPa, x1 = 0.5076 | 11.031 ± 0.017
293.29 K, 429.96 kPa, x1 = 0.5076 | 15.3484 ± 0.018
293.29 K, 515.52 kPa, x1 = 0.168 | 13.0247 ± 0.015
293.29 K, 530.45 kPa, x1 = 0.5076 | 19.4174 ± 0.021
293.29 K, 612.66 kPa, x1 = 0.168 | 15.8319 ± 0.017
293.29 K, 715.58 kPa, x1 = 0.168 | 18.9724 ± 0.02
293.29 K, 825.52 kPa, x1 = 0.168 | 22.5539 ± 0.02
293.3 K, 210.11 kPa, x1 = 0.679 | 8.2494 ± 0.017
293.3 K, 641.29 kPa, x1 = 0.5076 | 24.1912 ± 0.022
293.31 K, 101.19 kPa, x1 = 0.679 | 3.8833 ± 0.016
293.31 K, 324.6 kPa, x1 = 0.679 | 13.0914 ± 0.019
293.32 K, 432.86 kPa, x1 = 0.679 | 17.9448 ± 0.021
293.32 K, 546.41 kPa, x1 = 0.679 | 23.3906 ± 0.023
293.34 K, 454.67 kPa, x1 = 0.8949 | 22.4737 ± 0.024
293.35 K, 100.25 kPa, x1 = 0.8949 | 4.4951 ± 0.019
293.35 K, 226.08 kPa, x1 = 0.8949 | 10.452 ± 0.02
293.35 K, 345.6 kPa, x1 = 0.8949 | 16.5159 ± 0.022
